Results on 1 molecule are retold here after patent US11685714B2, “Prodrugs of cytotoxic active agents having enzymatically cleavable groups” (BAYER PHARMA AKTIENGESELLSCHAFT, priority 2016, dated 2023).

The target of the assay is T1, recombinant human legumain (Homo sapiens, UniProt Q99538).
T1 construct: purchased R&D Systems 2199-CY
T1 sequence (Q99538 26-323 limits assumed): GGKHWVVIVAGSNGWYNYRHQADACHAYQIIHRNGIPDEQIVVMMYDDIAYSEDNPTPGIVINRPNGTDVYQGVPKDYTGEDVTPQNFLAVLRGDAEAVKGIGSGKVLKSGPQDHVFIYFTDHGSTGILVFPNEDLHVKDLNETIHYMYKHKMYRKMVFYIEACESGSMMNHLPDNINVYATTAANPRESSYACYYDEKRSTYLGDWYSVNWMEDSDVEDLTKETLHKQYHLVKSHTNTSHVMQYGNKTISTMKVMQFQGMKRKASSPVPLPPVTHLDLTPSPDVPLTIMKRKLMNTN
Kind of assay: Legumain assay (cleavage of legumain-cleavable prodrugs). The class given is biochemical. The following applies: within 24 h; rh legumain, pH 5.0. As to the method: The legumain assay was conducted with recombinant human enzyme. The rh legumain enzyme solution (catalogue #2199-CY, R&D Systems) was diluted to the desired concentration in 50 mM Na acetate buffer/100 mM NaCl, pH4.0 and preincubated at 37° C. for 2 h. rh legumain was then adjusted to a final concentration of 1 ng/μl in 50 mM MES buffer, 250 mM NaCl, pH 5.0. For every legumain-cleavable prodrug to be examined, a mixture was made up in a micro reaction vessel (0.5 ml, from Eppendorf). For this purpose, the substrate solution was adjusted to the desired concentration (double concentration) with 50 mM MES buffer, 250 mM NaCl, pH 5.0. For the kinetic measurement of the enzymatic reaction, 250 μl of the legumain solution were first initially charged and the enzyme reaction was started by adding 250 μl of the substrate solution (final concentration: single concentration). At different times, 50 μl samples were taken. This sample was admixed immediately with 100 μl of ice-cold methanol in order to stop the enzymatic reaction and then frozen at −20° C. The times selected for sampling were after 0.5 h, 1 h, 3 h and 24 h. The samples were then analysed by means of RP-HPLC analysis and by LC-MS analysis. The determination of the toxophor released enabled the determination of the half-life t½ of the enzymatic reaction (FIG. 1). […]

With `CNC(=O)[C@H](CCN(C(=O)CO)[C@@H](c1cc(-c2cc(F)ccc2F)cn1Cc1ccccc1)C(C)(C)C)NC(=O)[C@H](CC(N)=O)NC(=O)[C@@H](C)NC(=O)[C@H](C)NC(=O)Cc1ccncc1` [Example R3r-LDL, N-(Pyridin-4-ylacetyl)-L-alanyl-D-alanyl-N^1-[(2S)-4-[{(1R)-1-[1-benzyl-4-(2,5-difluorophenyl)-1H-pyrrol-2-yl]-2,2-dimethylpropyl}(glycoloyl)amino]-1-(methylamino)-1-oxobutan-2-yl]-L-aspartamide], the “extent of cleavage to the target compound by legumain” value was “about 20%”.
